Test results taken from patent US20260364214A1, “MULTIVALENT FIBROBLAST ACTIVATION PROTEIN LIGANDS FOR TARGETED DELIVERY APPLICATIONS” (Philochem AG, priority 2022, published 2026).

Target: T1, recombinant hFAP (Homo sapiens, UniProt Q12884)
T1 sequence (Q12884 26-760 limits assumed): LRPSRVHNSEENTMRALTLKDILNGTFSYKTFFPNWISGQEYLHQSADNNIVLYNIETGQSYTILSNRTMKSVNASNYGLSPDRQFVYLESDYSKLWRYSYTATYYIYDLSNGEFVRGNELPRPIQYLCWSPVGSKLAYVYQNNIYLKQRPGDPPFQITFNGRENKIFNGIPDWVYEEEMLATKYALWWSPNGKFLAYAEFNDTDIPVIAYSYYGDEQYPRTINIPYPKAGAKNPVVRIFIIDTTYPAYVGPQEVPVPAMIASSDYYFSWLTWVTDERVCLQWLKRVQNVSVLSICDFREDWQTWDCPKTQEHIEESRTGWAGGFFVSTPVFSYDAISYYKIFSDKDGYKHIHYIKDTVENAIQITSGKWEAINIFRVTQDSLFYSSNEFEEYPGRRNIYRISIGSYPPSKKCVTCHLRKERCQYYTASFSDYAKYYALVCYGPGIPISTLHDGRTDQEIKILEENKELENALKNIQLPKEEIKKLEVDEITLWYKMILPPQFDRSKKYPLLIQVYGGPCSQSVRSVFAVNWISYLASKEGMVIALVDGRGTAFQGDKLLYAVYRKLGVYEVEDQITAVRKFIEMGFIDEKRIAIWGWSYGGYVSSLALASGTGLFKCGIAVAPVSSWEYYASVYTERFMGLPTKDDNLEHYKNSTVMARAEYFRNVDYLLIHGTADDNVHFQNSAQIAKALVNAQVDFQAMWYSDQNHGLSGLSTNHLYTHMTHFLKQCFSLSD
Test: hFAP inhibition assay (Z-Gly-Pro-AMC substrate)
Type: biochemical
Details: Z-Gly-Pro-AMC 20 μM; protein 66 μM; pH 7.4; room temperature
Description: (§1) Enzymatic activity of hFAP on the Z-Gly-Pro-AMC substrate was measured at room temperature on a microtiter plate reader, monitoring the fluorescence at an excitation wavelength of 360 nm and an emission wavelength of 465 nm. The reaction mixture contained substrate (20 μM), protein (66 μM, constant), assay buffer (50 mM Tris, 100 mM NaCl, and 1 mM EDTA, pH=7.4), and inhibitors with serial dilution from 167 nM to 80 fM, 1:2 in a total volume of 20 μL. Experiments were performed in triplicate, and the mean fluorescence values were fitted using Prism 7. The value is defined as the concentration of inhibitor required to reduce the enzyme activity by 50% after addition of the substrate [FIG. 1 and FIG. 8].
According to the same procedure, further comparative inhibition assays with trimeric binders having inter alia different lengths of linker group B and/or different payload groups C were performed with compounds Tri-ESV6-ValCit-MMAE (14), Tri-ESV6-linker-DOTAGA (13) and diastereoisomers of Tri-ESV6-DOTAGA (11, 12) [FIG. 18]. Comparative hFAP inhibition assays with tetravalent binders 10 and 29 were also performed [FIG. 20].
as §1, with “substrate.” for “substrate [FIG. 1 and FIG. 8].”
as §1, with “e) Inhibition assay with Tri-ESV6-DOTAGA, Tetra-ESV6-DOTAGA, Hexa-ESV6-DOTAGA, Octa-ESV6-DOTAGA, ESV6-L-DOTAGA and BI-ESV6-L-DOTAGA. Enzymatic” for “Enzymatic”, “substrate.” for “substrate [FIG. 1 and FIG. 8].”

IC50	SMILES
0.038 nM	N#C[C@@H]1CC(F)(F)CN1C(=O)CNC(=O)c1ccnc2c(NC(=O)CCC(=O)NCCOCCOCCC(=O)NCCNC(=O)CCOCC(COCCC(=O)NCCNC(=O)CCOCCOCCNC(=O)CCC(=O)Nc3cccc4c(C(=O)NCC(=O)N5CC(F)(F)C[C@H]5C#N)ccnc34)(COCCC(=O)NCCNC(=O)CCOCCOCCNC(=O)CCC(=O)Nc3cccc4c(C(=O)NCC(=O)N5CC(F)(F)C[C@H]5C#N)ccnc34)NC(=O)CCC(C(=O)O)N3CCN(CC(=O)O)CCN(CC(=O)O)CCN(CC(=O)O)CC3)cccc12 (stereo partly shown) [Tri-ESV6-PEG2-DOTAGA]
0.126 nM	N#C[C@@H]1CC(F)(F)CN1C(=O)CNC(=O)c1ccnc2c(NC(=O)CCC(=O)NCCOCCOCCOCCOCCC(=O)NCCNC(=O)CCOCC(COCCC(=O)NCCNC(=O)CCOCCOCCOCCOCCNC(=O)CCC(=O)Nc3cccc4c(C(=O)NCC(=O)N5CC(F)(F)C[C@H]5C#N)ccnc34)(COCCC(=O)NCCNC(=O)CCOCCOCCOCCOCCNC(=O)CCC(=O)Nc3cccc4c(C(=O)NCC(=O)N5CC(F)(F)C[C@H]5C#N)ccnc34)NC(=O)CCC(C(=O)O)N3CCN(CC(=O)O)CCN(CC(=O)O)CCN(CC(=O)O)CC3)cccc12 (stereo partly shown) [Tri-ESV6-PEG4-DOTAGA]
0.273 nM	N#C[C@@H]1CC(F)(F)CN1C(=O)CNC(=O)c1ccnc2c(NC(=O)CCC(=O)NCCOCCOCCOCCOCCOCCOCCC(=O)NCCNC(=O)CCOCC(COCCC(=O)NCCNC(=O)CCOCCOCCOCCOCCOCCOCCNC(=O)CCC(=O)Nc3cccc4c(C(=O)NCC(=O)N5CC(F)(F)C[C@H]5C#N)ccnc34)(COCCC(=O)NCCNC(=O)CCOCCOCCOCCOCCOCCOCCNC(=O)CCC(=O)Nc3cccc4c(C(=O)NCC(=O)N5CC(F)(F)C[C@H]5C#N)ccnc34)NC(=O)CCC(C(=O)O)N3CCN(CC(=O)O)CCN(CC(=O)O)CCN(CC(=O)O)CC3)cccc12 (stereo partly shown) [Tri-ESV6-PEG6-DOTAGA]
1.1 nM	N#C[C@@H]1CC(F)(F)CN1C(=O)CNC(=O)c1ccnc2c(NC(=O)CCC(=O)NCCOCCOCCOCCOCCOCCOCCOCCOCCC(=O)NCCNC(=O)CCOCC(COCCC(=O)NCCNC(=O)CCOCCOCCOCCOCCOCCOCCOCCOCCNC(=O)CCC(=O)Nc3cccc4c(C(=O)NCC(=O)N5CC(F)(F)C[C@H]5C#N)ccnc34)(COCCC(=O)NCCNC(=O)CCOCCOCCOCCOCCOCCOCCOCCOCCNC(=O)CCC(=O)Nc3cccc4c(C(=O)NCC(=O)N5CC(F)(F)C[C@H]5C#N)ccnc34)NC(=O)CCC(C(=O)O)N3CCN(CC(=O)O)CCN(CC(=O)O)CCN(CC(=O)O)CC3)cccc12 (stereo partly shown) [Tri-ESV6-PEG8-DOTAGA]

Same assay, conditions: recombinant hFAP

SMILES	IC50 / inhibitory activity, comparison in words
N#C[C@@H]1CC(F)(F)CN1C(=O)CNC(=O)c1ccnc2c(NC(=O)CCC(=O)NCCCCC(NC(=O)CCC(=O)Nc3cccc4c(C(=O)NCC(=O)N5CC(F)(F)C[C@H]5C#N)ccnc34)C(=O)NCCNC(=O)CCC(C(=O)O)N3CCN(CC(=O)O)CCN(CC(=O)O)CCN(CC(=O)O)CC3)cccc12 (stereo partly shown) [Bi-ESV6-DOTAGA, reference compound]	IC50 comparable to the ones of original derivatives
N#C[C@@H]1CC(F)(F)CN1C(=O)CNC(=O)c1ccnc2c(NC(=O)CCC(=O)NCCNC(=O)CCOCCNC(=O)CCC(C(=O)O)N3CCN(CC(=O)O)CCN(CC(=O)O)CCN(CC(=O)O)CC3)cccc12 (stereo partly drawn) [ESV6-L-DOTAGA]	IC50 comparable to the ones of original derivatives
N#C[C@@H]1CC(F)(F)CN1C(=O)CNC(=O)c1ccnc2c(NC(=O)CCC(=O)NCCNC(=O)CCOCC(COCCC(=O)NCCNC(=O)CCC(=O)Nc3cccc4c(C(=O)NCC(=O)N5CC(F)(F)C[C@H]5C#N)ccnc34)NC(=O)CCOCC(COCCC(=O)NC(COCCC(=O)NCCNC(=O)CCC(=O)Nc3cccc4c(C(=O)NCC(=O)N5CC(F)(F)C[C@H]5C#N)ccnc34)COCCC(=O)NCCNC(=O)CCC(=O)Nc3cccc4c(C(=O)NCC(=O)N5CC(F)(F)C[C@H]5C#N)ccnc34)NC(=O)CCC(C(=O)O)N3CCN(CC(=O)O)CCN(CC(=O)O)CCN(CC(=O)O)CC3)cccc12 (stereo partly shown) [Tetra-ESV6-DOTAGA]	directly proportional to the valency until Tetra-ESV6-DOTAGA
